From PubChem BioAssay (NCI)
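Exposure lasted 48 hours, with cells grown in 96-well plates and compounds tested at five concentrations. GI50: concentration for 50% inhibition of growth. At the TGI there is no net growth.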

Key:
Experiment in all cases: inhibition of tumour cell growth, NCI panel, 48 h
[1] = test system: MCF7 breast
[2] = test system: OVCAR-5 ovarian
[3] = test system: SF-539 CNS
[4] = test system: EKVX NSCLC
[5] = test system: SK-OV-3 ovarian
[6] = test system: A498 renal
[7] = test system: MALME-3M melanoma
[8] = test system: LOX IMVI melanoma
[9] = test system: IGROV1 ovarian
[10] = test system: SF-268 CNS
[11] = test system: RPMI-8226 leukemia
[12] = test system: UACC-257 melanoma
[13] = test system: SN12C renal
[14] = test system: SNB-19 CNS
[15] = test system: SR leukemia
[16] = test system: MOLT-4 leukemia
[17] = test system: UO-31 renal
[18] = test system: PC-3 prostate
[19] = test system: NCI-H226 lung
[20] = test system: MDA-MB-468 breast
[21] = test system: TK-10 renal
[22] = test system: M14 melanoma
[23] = test system: SK-MEL-2 melanoma
[24] = test system: DU-145 prostate
[25] = test system: HCT-116 colon
[26] = test system: HCT-15 colon
[27] = test system: SF-295 CNS
[28] = test system: MDA-MB-435
[29] = test system: OVCAR-4 ovarian
[30] = test system: OVCAR-8 ovarian
[31] = test system: HL-60(TB) leukemia
[32] = test system: U251 CNS
[33] = test system: COLO 205 colon
[34] = test system: HOP-62 NSCLC
[35] = test system: MDA-MB-231 breast
[36] = test system: KM12 colon
[37] = test system: K-562 leukemia
[38] = test system: CCRF-CEM leukemia
[39] = test system: HS 578T breast
[40] = test system: SK-MEL-28 melanoma
[41] = test system: BT-549 breast
[42] = test system: A549 NSCLC
[43] = test system: NCI-H460 lung
[44] = test system: HT29 colon
[45] = test system: 786-0 renal
[46] = test system: RXF 393 renal
[47] = test system: OVCAR-3 ovarian
[48] = test system: NCI/ADR-RES ovarian
[49] = test system: HCC-2998 colon
[50] = test system: ACHN renal
[51] = test system: NCI-H522 lung
[52] = test system: SK-MEL-5 melanoma
[53] = test system: UACC-62 melanoma
[54] = test system: SW-620 colon
[55] = test system: CAKI-1 renal
[56] = test system: NCI-H23 lung

`COc1cc(OC)cc(-c2cc3ccc(N(C)C)cc3c(=O)[nH]2)c1` showed a GI50 [1] of 33.1 nM, a TGI [1] greater than 100000 nM and a GI50 [2] of 35.7 nM. For the same compound, the TGI [2] was greater than 100000 nM, the GI50 [3] was 11.7 nM and the TGI [3] was 42.6 nM. It also gave a GI50 [4] of 58.8 nM, a TGI [4] greater than 100000 nM and a GI50 [5] of 33.5 nM. It also gave a TGI [5] greater than 100000 nM, a GI50 [6] greater than 100000 nM and a TGI [6] greater than 100000 nM. The GI50 [7] was 24 nM, the TGI [7] was greater than 100000 nM and the GI50 [8] was 19 nM. The TGI [8] was greater than 100000 nM, the GI50 [9] was 44.6 nM and the TGI [9] was greater than 100000 nM. The GI50 [10] was 354 nM, the TGI [10] was greater than 100000 nM and the GI50 [11] was 43.6 nM. The TGI [11] was greater than 100000 nM, the GI50 [12] was greater than 100000 nM and the TGI [12] was greater than 100000 nM. The GI50 [13] was 37.2 nM, the TGI [13] was greater than 100000 nM and the GI50 [14] was 54.2 nM. It also gave a TGI [14] greater than 100000 nM, a GI50 [15] of less than 10 nM and a TGI [15] greater than 100000 nM. The GI50 [16] was 25.4 nM, the TGI [16] was greater than 100000 nM and the GI50 [17] was 52.3 nM. It also gave a TGI [17] greater than 100000 nM, a GI50 [18] of 40 nM and a TGI [18] greater than 100000 nM. The GI50 [19] was 219 nM, the TGI [19] was greater than 100000 nM and the GI50 [20] was 21.7 nM. It also gave a TGI [20] of 69 nM, a GI50 [21] greater than 100000 nM and a TGI [21] greater than 100000 nM. The GI50 [22] was less than 10.6 nM, the TGI [22] was greater than 48200 nM and the GI50 [23] was 25.6 nM. The TGI [23] was greater than 100000 nM, the GI50 [24] was 45.6 nM and the TGI [24] was greater than 100000 nM. The GI50 [25] was less than 13.5 nM, the TGI [25] was greater than 100000 nM and the GI50 [26] was less than 11.6 nM. The GI50 [27] was less than 10.6 nM, the GI50 [28] was less than 10 nM and the TGI [28] was 14.9 nM. The GI50 [29] was 1670 nM, the TGI [29] was greater than 100000 nM and the GI50 [30] was 29.8 nM. For the same compound, the TGI [30] was 187 nM, the GI50 [31] was less than 11 nM and the TGI [31] was 43.4 nM. For the same compound, the GI50 [32] was 15.1 nM, the TGI [32] was greater than 47000 nM and the GI50 [33] was 22.3 nM. It also gave a TGI [33] of 58.3 nM, a GI50 [34] of 38 nM and a TGI [34] greater than 100000 nM. The GI50 [35] was 30.3 nM, the TGI [35] was 3600 nM and the GI50 [36] was 31 nM. It also gave a TGI [36] greater than 100000 nM, a GI50 [37] of less than 10 nM and a TGI [37] greater than 100000 nM. For the same compound, the GI50 [38] was 39.6 nM, the TGI [38] was greater than 100000 nM and the GI50 [39] was 25.2 nM. It also gave a TGI [39] greater than 100000 nM, a GI50 [40] of 42.2 nM and a TGI [40] greater than 100000 nM. For the same compound, the GI50 [41] was 38 nM, the TGI [41] was greater than 100000 nM and the GI50 [42] was 39 nM. The TGI [42] was greater than 100000 nM, the GI50 [43] was 34.1 nM and the TGI [43] was greater than 100000 nM. The GI50 [44] was 16.4 nM, the TGI [44] was 52.9 nM and the GI50 [45] was 45.1 nM. For the same compound, the TGI [45] was greater than 63300 nM, the GI50 [46] was 15.5 nM and the TGI [46] was greater than 100000 nM. For the same compound, the GI50 [47] was 19.1 nM, the TGI [47] was 37800 nM and the GI50 [48] was less than 10 nM. It also gave a TGI [48] of 33.6 nM, a GI50 [49] of 25.7 nM and a TGI [49] greater than 100000 nM. The GI50 [50] was 52.2 nM, the TGI [50] was greater than 100000 nM and the GI50 [51] was less than 10 nM. It also gave a TGI [51] of 47.3 nM, a GI50 [52] of 17.1 nM and a TGI [52] of 145 nM. The GI50 [53] was less than 10 nM, the TGI [53] was greater than 100000 nM and the GI50 [54] was less than 10.6 nM. For the same compound, the TGI [54] was greater than 100000 nM, the GI50 [55] was 14.5 nM and the TGI [55] was greater than 100000 nM. It also gave a GI50 [56] of 42.6 nM and a TGI [56] greater than 100000 nM.
